From ChEMBL document CHEMBL3232986, “Identification of a novel series of potent HCV NS5B Site I inhibitors” (Bioorg Med Chem Lett, 2014)

Key:
[1] = Drug uptake in rat liver 10 mg/kg, po after 6 hrs; type: ADME, organism-based; parameters: dose 10 mg/kg, route oral; details: liver, read-out: Drug uptake
Hepatitis C virus = assay: Antiviral activity against HCV genotype 1a H77c infected in human HuH7 cells after 3 days by luciferase reporter gene assay; type: functional, cell-based, Hepacivirus hominis; details: Huh-7, 72 h
[2] = Plasma concentration in rat at 10 mg/kg, po after 6 hrs; type: ADME, organism-based; parameters: dose 10 mg/kg, route oral; details: plasma
[3] = Clearance in rat after 6 hrs; type: ADME, organism-based; details: in vivo
[4] = Inhibition of HCV genotype 1b wild type NS5B polymerase using biotinylated oligo dT12 primer as substrate after 4 hrs in presence of [3H]UTP; parameters: species or system Hepatitis C virus subtype 1b
[5] = Plasma concentration in rat at 5 mg/kg, iv after 6 hrs; type: ADME, organism-based; parameters: dose 5 mg/kg, route intravenous; details: plasma
[6] = Cytotoxicity against human HuH7 cells after 4 hrs by CellTitre-Blue assay; type: cell-based, Huh-7
[7] = Drug uptake in rat liver at 5 mg/kg, iv after 6 hrs; type: ADME, organism-based; parameters: dose 5 mg/kg, route intravenous; details: liver, read-out: Drug uptake
[8] = Ratio of EC50 for HCV genotype 1a H77c replicon cells to IC50 for HCV genotype 1b wild type NS5B polymerase
[9] = Permeability of the compound at pH 7.4 by PAMPA; type: physicochemical; details: read-out: permeability

Structure (SMILES) | concentration at 6 h [1] [nM] | EC50 (Hepatitis C virus) [nM] | concentration at 6 h [2] [nM] | clearance [3] [mL/min/kg] | IC50 [4] [nM] | concentration at 6 h [5] [nM] | CC50 at 4 h [6] [nM] | concentration at 6 h [7] [nM] | Ratio [8] | Papp [9] [×10⁻⁶ cm/s]
CCN1CC23COCC2(C1)CN(C(=O)[C@]12C[C@H]1c1cc(OC)ccc1-c1c(C4CCCCC4)c4ccc(C(=O)NS(=O)(=O)C(C)C)cc4n1C2)C3 (some centres not stated) | 66 | 4 | 6 | 49 | 4 | 8 | 11000 | – | – | –
COc1ccc2c(c1)[C@@H]1C[C@]1(C(=O)N1CC34CNCC3(CN(C)C4)C1)Cn1c-2c(C2CCCCC2)c2ccc(C(=O)NS(=O)(=O)C(C)C)cc21 (some centres not stated) | – | 41 | – | – | 5 | – | – | – | – | –
COc1ccc2c(c1)[C@@H]1C[C@]1(C(=O)N1CC34CN(C)CC3(CN(C)C4)C1)Cn1c-2c(C2CCCCC2)c2ccc(C(=O)NS(=O)(=O)C(C)C)cc21 (some centres not stated) | 68 | 1 | 4 | 25 | 5 | 14 | 43000 | 66 | – | –
COc1ccc2c(c1)[C@@H]1C[C@]1(C(=O)N1CC34CNCC3(COC4)C1)Cn1c-2c(C2CCCCC2)c2ccc(C(=O)NS(=O)(=O)C(C)C)cc21 (some centres not stated) | – | 23 | – | – | 6 | – | – | – | – | –
COc1ccc2c(c1)[C@@H]1C[C@]1(C(=O)N1CC34COCC3(CN(C(C)=O)C4)C1)Cn1c-2c(C2CCCCC2)c2ccc(C(=O)NS(=O)(=O)C(C)C)cc21 (some centres not stated) | – | 42 | – | – | 3 | – | > 100000 | – | 14 | –
COC(=O)N1CC23COCC2(C1)CN(C(=O)[C@]12C[C@H]1c1cc(OC)ccc1-c1c(C4CCCCC4)c4ccc(C(=O)NS(=O)(=O)C(C)C)cc4n1C2)C3 (some centres not stated) | – | 46 | – | – | 23 | – | 5000 | – | – | –
COC(=O)N1CC23COCC2(C1)CN(C(=O)[C@]12C[C@H]1c1cc(OC)ccc1-c1c(C4CCCCC4)c4ccc(C(=O)NS(=O)(=O)N(C)C)cc4n1C2)C3 (some centres not stated) | – | 462 | – | – | – | – | 7000 | – | – | –
CNC(=O)N1CC23COCC2(C1)CN(C(=O)[C@]12C[C@H]1c1cc(OC)ccc1-c1c(C4CCCCC4)c4ccc(C(=O)NS(=O)(=O)C(C)C)cc4n1C2)C3 (some centres not stated) | – | 200 | – | – | 3 | – | > 100000 | – | 66 | 1.8
COc1ccc2c(c1)[C@@H]1C[C@]1(C(=O)N1CC34COCC3(C1)CN(S(=O)(=O)C(C)C)C4)Cn1c-2c(C2CCCCC2)c2ccc(C(=O)NS(=O)(=O)C(C)C)cc21 (some centres not stated) | – | 16 | – | – | 2 | – | 17000 | – | 8 | –
COc1ccc2c(c1)[C@@H]1C[C@]1(C(=O)N1CC34COCC3(C1)CN(S(=O)(=O)C(C)C)C4)Cn1c-2c(C2CCCCC2)c2ccc(C(=O)NS(=O)(=O)N(C)C)cc21 (some centres not stated) | – | 6 | – | – | 2 | – | 12000 | – | – | –
COc1ccc2c(c1)[C@@H]1C[C@]1(C(=O)N1CC34COCC3(CN(CC(F)(F)F)C4)C1)Cn1c-2c(C2CCCCC2)c2ccc(C(=O)NS(=O)(=O)C(C)C)cc21 (some centres not stated) | – | 16 | – | – | 4 | – | 8000 | – | – | –
COc1ccc2c(c1)[C@@H]1C[C@]1(C(=O)N1CC34COCC3(CN(CC(F)(F)F)C4)C1)Cn1c-2c(C2CCCCC2)c2ccc(C(=O)NS(=O)(=O)N(C)C)cc21 (some centres not stated) | – | 19 | – | – | 2 | – | 7000 | – | – | –
CCOCCN1CC23COCC2(C1)CN(C(=O)[C@]12C[C@H]1c1cc(OC)ccc1-c1c(C4CCCCC4)c4ccc(C(=O)NS(=O)(=O)C(C)C)cc4n1C2)C3 (some centres not stated) | 116 | 5 | 8 | 81 | – | 32 | 19000 | 77 | – | –
CCOCCN1CC23COCC2(C1)CN(C(=O)[C@]12C[C@H]1c1cc(OC)ccc1-c1c(C4CCCCC4)c4ccc(C(=O)NS(=O)(=O)N(C)C)cc4n1C2)C3 (some centres not stated) | – | 3 | – | – | – | – | 16000 | – | – | –
COc1ccc2c(c1)[C@@H]1C[C@]1(C(=O)N1CC34CCC3(CN(C)C4)C1)Cn1c-2c(C2CCCCC2)c2ccc(C(=O)NS(=O)(=O)C(C)C)cc21 (some centres not stated) | 146 | 4 | 6 | 24 | 4 | 26 | 21000 | 138 | – | –
COc1ccc2c(c1)[C@@H]1C[C@]1(C(=O)N1CC34CCC3(C1)CN(C1CC1)C4)Cn1c-2c(C2CCCCC2)c2ccc(C(=O)NS(=O)(=O)C(C)C)cc21 (some centres not stated) | – | 12 | – | – | 5 | – | 18000 | – | – | –
COc1ccc2c(c1)[C@@H]1C[C@]1(C(=O)N1CC34CCC3(C1)CN(C1CC1)C4)Cn1c-2c(C2CCCCC2)c2ccc(C(=O)NS(=O)(=O)N(C)C)cc21 (some centres not stated) | – | 8 | – | – | – | – | 5000 | – | – | –
COc1ccc2c(c1)[C@@H]1C[C@]1(C(=O)N1CC34CCC3(CN(C(C)=O)C4)C1)Cn1c-2c(C2CCCCC2)c2ccc(C(=O)NS(=O)(=O)C(C)C)cc21 (some centres not stated) | – | 31 | – | – | 2 | – | 37000 | – | – | –
COC(=O)N1CC23CCC2(C1)CN(C(=O)[C@]12C[C@H]1c1cc(OC)ccc1-c1c(C4CCCCC4)c4ccc(C(=O)NS(=O)(=O)C(C)C)cc4n1C2)C3 (some centres not stated) | – | 64 | – | – | 25 | – | 3000 | – | – | –
CNC(=O)N1CC23CCC2(C1)CN(C(=O)[C@]12C[C@H]1c1cc(OC)ccc1-c1c(C4CCCCC4)c4ccc(C(=O)NS(=O)(=O)C(C)C)cc4n1C2)C3 (some centres not stated) | – | 20 | – | – | 2 | – | 72000 | – | – | –
COc1ccc2c(c1)[C@@H]1C[C@]1(C(=O)N1CC34CCC3(CN(C(=O)N3CCCC3)C4)C1)Cn1c-2c(C2CCCCC2)c2ccc(C(=O)NS(=O)(=O)C(C)C)cc21 (some centres not stated) | – | 27 | – | – | 4 | – | 14000 | – | – | –
COc1ccc2c(c1)[C@@H]1C[C@]1(C(=O)N1CC34CCC3(CN(C(=O)N3CCCC3)C4)C1)Cn1c-2c(C2CCCCC2)c2ccc(C(=O)NS(=O)(=O)N(C)C)cc21 (some centres not stated) | – | 18 | – | – | 2 | – | 10000 | – | – | –
COc1ccc2c(c1)[C@@H]1C[C@]1(C(=O)N1CC34CCC3(CN(C(=O)N3CCOCC3)C4)C1)Cn1c-2c(C2CCCCC2)c2ccc(C(=O)NS(=O)(=O)C(C)C)cc21 (some centres not stated) | – | 28 | – | – | 5 | – | 27000 | – | – | –
COc1ccc2c(c1)[C@@H]1C[C@]1(C(=O)N1CC34CCC3(CN(C(=O)N(C(C)C)C(C)C)C4)C1)Cn1c-2c(C2CCCCC2)c2ccc(C(=O)NS(=O)(=O)C(C)C)cc21 (some centres not stated) | – | 37 | – | – | 4 | – | 10000 | – | – | –
COc1ccc2c(c1)[C@@H]1C[C@]1(C(=O)N1CC34CCC3(CN(C(=O)N(C(C)C)C(C)C)C4)C1)Cn1c-2c(C2CCCCC2)c2ccc(C(=O)NS(=O)(=O)N(C)C)cc21 (some centres not stated) | – | 23 | – | – | 7 | – | 7000 | – | – | –
COc1ccc2c(c1)[C@@H]1C[C@]1(C(=O)N1CC34CCC3(CN(CC(F)(F)F)C4)C1)Cn1c-2c(C2CCCCC2)c2ccc(C(=O)NS(=O)(=O)C(C)C)cc21 (some centres not stated) | – | 77 | – | – | 7 | – | 35000 | – | – | –
COc1ccc2c(c1)[C@@H]1C[C@]1(C(=O)N1CC34CCC3(CN(CC(F)(F)F)C4)C1)Cn1c-2c(C2CCCCC2)c2ccc(C(=O)NS(=O)(=O)N(C)C)cc21 (some centres not stated) | – | 55 | – | – | 4 | – | 26000 | – | – | –
COc1ccc2c(c1)[C@@H]1C[C@]1(C(=O)N1CC34CCC3(C1)CN(S(=O)(=O)C(C)C)C4)Cn1c-2c(C2CCCCC2)c2ccc(C(=O)NS(=O)(=O)C(C)C)cc21 (some centres not stated) | – | 7 | – | – | 4 | – | 10000 | – | – | –
COc1ccc2c(c1)[C@@H]1C[C@]1(C(=O)N1CC34CCCC3(CN(C)C4)C1)Cn1c-2c(C2CCCCC2)c2ccc(C(=O)NS(=O)(=O)C(C)C)cc21 (some centres not stated) | 504 | 2 | 24 | 31 | 3 | 22 | 11000 | 428 | – | –
COc1ccc2c(c1)[C@@H]1C[C@]1(C(=O)N1[C@@H]3CC[C@H]1CN(C)C3)Cn1c-2c(C2CCCCC2)c2ccc(C(=O)NS(=O)(=O)N(C)C)cc21 [BECLABUVIR] | – | 2 | – | – | 4 | – | 16000 | – | – | –
